Experimental findings from patent US11034725B2, “Compositions and methods for treating cardiovascular disease” (Genentech, Inc., priority 2016, dated 2021) are described below.

Experiment [1] concerns His-EGF(A)-Fc. The experiment can be described thus: His-EGF(A)-Fc TR-FRET counterscreen.
Experiment [2] has as its target T1, PCSK9Δhelix (Homo sapiens, UniProt Q8NBP7).
T1 construct: Human PCSK9 construct M1-Q692 with an engineered TEV site (residue deletion Y166, R167); made in house; host or cells: CHO
The experiment can be described thus: Surface plasmon resonance biosensor-based affinity analysis (Example 4). The class given is binding. As to conditions: for Kd: Table 7, Target PCSK9Δhelix, SPR at 20° C., read-out: Kd.
Experimental: All assays were conducted at an analysis temperature of 20° C. Samples were held at 10° C. in the sample rack to prevent denaturation of PCSK9 proteins. A biacore T100 from GE HealthCare and a SensiQ Pioneer FE were employed. All reagents were obtained from Sigma-Aldrich unless otherwise stated. The full set of peptides was analyzed using three closely related biosensor protocols that were expected to report equivalent affinity/kinetic parameters. The need for multiple protocols was related to the aggregation potential of some peptides. The buffer composition was largely conserved other than the addition of solubilizers such as dimethylsulfoxide (DMSO), 10 kDa polyvinylpyrrolidone (PVP) and 10 kDa carboxymethylated dextran (CM dextran).
A Series S NTA sensor chip was docked in the Biacore T100 biosensor system. The system was primed into running buffer (i.e. 50 mM HEPES, 0.15 M NaCl, 0.005% T20, pH 7.5). Hexahistidine-tagged proteins (“hexahistidine” disclosed as SEQ ID NO: 297) (i.e. PCSK9 or PCSK9Δhelix) were affinity captured onto separate sensing channels where at least one sensing surface remained uncoated in order to be applied as a referencing sensing surface. Compound samples were prepared in running buffer and injected. All affinity bound complexes were then removed before reloading each protein in order to test the next sample. Each sample cycle therefore consisted of five sequential injections that were repeated for each test sample as follows.
Injected sample using high quality injection mode. […] For these compounds the entire sample cycle consisting of five serial injections was repeated for each dilution. This sample cycle was a repeated sequence that is executed for each sample in the sample table.
This method was identical to method 1 except an alternative injection mode designated as single cycle kinetics (named by the manufacturer) was employed allowing a full dilution series to be completed during each sample cycle by replacing a single compound dilution injection with five sequential injections of increasing concentration. The resulting sensorgram (i.e. response curve) contained five binding-dissociation phases each associated with each injected compound dilution. The activation, capture and regeneration injections remained unchanged. […] Also CM dextran (Sigma-Aldrich product number 86524) was added to all buffers in the assay to a final concentration of 2 mg/mL in order to further lower non-specific binding to the surface. […] All recorded binding curves were automatically double referenced and fitted with a 1:1 model using BIAevaluation analysis software from GE HealthCare.
This instrument is analogous to Biacore AB biosensors in terms of surface chemistry, flow injection analysis and methodologies that can be employed except that it also provides a method to titrate compounds over the sensing surfaces.

Experiment [3] has as its target PCSK9 (Homo sapiens, UniProt Q8NBP7). The experiment can be described thus: PCSK9/EGF(A) TR-FRET binding assay. As to conditions: for IC50: TR-FRET, read-out: PCSK9/EGF(A) IC50.
Experiment [4] concerns the target T1, PCSK9Δhelix. The experiment can be described thus: PCSK9Δhelix/Ab20 TR-FRET binding assay. As to conditions: for IC50: TR-FRET, read-out: PCSK9Δhelix/Ab20 IC50.
Experimental: The former was based on a TF-FRET assay to measure the association of the EGF(A) domain of the LDLR to PCSK9 (“PCSK9/EGF(A) binding assay”) whilst the latter was based on a TR-FRET assay to measure binding of Ab20 to PCSK9Δhelix (“PCSK9Δhelix/Ab20 binding assay”).
The ability of compounds to inhibit binding to PCSK9 was evaluated with a panel of time-resolved fluorescence resonance energy transfer (TR-FRET) binding assays. […] The PCSK9Δhelix/Ab20 binding assay evaluated the ability of compounds to compete with Ab20 for binding to the N-terminal groove region in a His-tagged, PCSK9Δhelix construct. […] Signal generation in the PCSK9 binding assays was dependent upon the binding interaction to bring into close proximity the His-tag on the PCSK9 and the Fc-tag on the ligand. Anti-His-APC was bound to the His-tag, and anti-Fc-europium was bound to the Fc-tag. When these two antibodies were in close proximity and were irradiated with light at 340 nm, the europium was excited and emitted energy at 615 nm. This energy was taken up by the APC and was emitted as light at 665 nm. Compounds that competed with the ligand reduced the energy transfer and thus the emission at 665 nm. In the His-EGFA-Fc molecule in the counterscreen, the two tags were always in close proximity, thus any reduction in emission at 665 nm was due to interference with the detection system.
Compounds were solubilized and dilutions were prepared in DMSO. […] The plate was centrifuged to mix the well contents and allowed to incubate for 30 min. […] The TR-FRET signal was read on a ViewLux reader (PerkinElmer) with excitation at 340 nm and emission at 615 and 665 nm with a 50-μs time delay between excitation and measurement of emission. The TR-FRET ratio was calculated as the fluorescence emission at 665 nm divided by the fluorescence emission at 615 nm. The normalized TR-FRET ratios were plotted as a function of the compound concentrations, and the IC50 values were determined using a 4-parameter logistic regression.
In black 1536-well assay plates (MaKO, Aurora® Microplates, Whitefish, Mont.), 40 nL of peptide in DMSO were preincubated with 2 μL His-tagged PCSK9 plus anti-His-allophycocyanin in assay buffer (50 mM Tris-HCl, pH 7.5, 150 mM NaCl, 2 mM CaCl2, 0.01% Tween®-20, 0.1% bovine gamma globulins, and protease inhibitor cocktail) for 30 min. Then 2 μL of Fc-tagged ligand and anti-Fc-europium in assay buffer were added and allowed to incubate for 2 h.
Setting [5] is: Table 8D, disulfide-cyclized extension peptides.

Like-named read-outs stand apart in the source and are kept apart here. Bridge positions count the residues as written; N and C are the ends. Peptide text beside a SMILES is read from it.

Sequence of PCSK9 (Q8NBP7 153-692): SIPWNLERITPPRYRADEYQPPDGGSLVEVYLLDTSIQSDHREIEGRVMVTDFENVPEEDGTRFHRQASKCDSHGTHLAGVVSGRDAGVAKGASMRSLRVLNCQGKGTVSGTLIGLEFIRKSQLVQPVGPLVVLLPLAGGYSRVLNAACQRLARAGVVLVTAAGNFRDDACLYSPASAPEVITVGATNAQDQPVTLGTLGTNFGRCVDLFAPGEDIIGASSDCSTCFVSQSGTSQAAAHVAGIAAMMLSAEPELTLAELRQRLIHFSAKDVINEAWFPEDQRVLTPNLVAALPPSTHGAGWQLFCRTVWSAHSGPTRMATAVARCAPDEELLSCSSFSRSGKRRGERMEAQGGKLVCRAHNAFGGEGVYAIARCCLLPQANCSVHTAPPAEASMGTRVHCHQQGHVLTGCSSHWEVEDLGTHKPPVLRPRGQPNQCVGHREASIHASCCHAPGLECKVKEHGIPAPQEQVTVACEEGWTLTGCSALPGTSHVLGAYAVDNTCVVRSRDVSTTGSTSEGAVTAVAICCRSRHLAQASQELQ
Sequence of PCSK9 (Q8NBP7 31-152 partner limits assumed): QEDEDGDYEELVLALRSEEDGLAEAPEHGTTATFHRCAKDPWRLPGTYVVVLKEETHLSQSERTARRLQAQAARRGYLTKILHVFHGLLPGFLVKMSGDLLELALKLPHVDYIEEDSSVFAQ
T1 sequence (Q8NBP7 with tags, fused parts or gaps limits assumed): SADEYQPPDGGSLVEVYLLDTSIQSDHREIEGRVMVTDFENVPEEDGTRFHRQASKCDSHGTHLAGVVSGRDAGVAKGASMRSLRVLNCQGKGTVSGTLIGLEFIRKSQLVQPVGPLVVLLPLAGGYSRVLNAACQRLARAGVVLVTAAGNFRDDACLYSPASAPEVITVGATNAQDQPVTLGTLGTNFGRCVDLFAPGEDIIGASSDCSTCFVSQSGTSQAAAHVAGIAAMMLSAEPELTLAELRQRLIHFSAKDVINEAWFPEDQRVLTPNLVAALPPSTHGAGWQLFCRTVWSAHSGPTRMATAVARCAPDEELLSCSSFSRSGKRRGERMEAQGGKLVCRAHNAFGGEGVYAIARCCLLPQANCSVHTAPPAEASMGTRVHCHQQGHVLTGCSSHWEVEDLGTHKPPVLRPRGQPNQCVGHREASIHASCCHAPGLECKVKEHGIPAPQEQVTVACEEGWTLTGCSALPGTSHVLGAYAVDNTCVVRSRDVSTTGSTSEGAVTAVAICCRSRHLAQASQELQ
T1 sequence (Q8NBP7 31-152 partner limits assumed): as the sequence (Q8NBP7 31-152 partner limits assumed) above

Regarding `CC[C@H](C)[C@@H]1NC(=O)[C@H](CCCNC(=N)N)NC(=O)[C@H](CCC(N)=O)NC(=O)[C@H](CC(C)C)NC(=O)[C@H](CC(N)=O)NC(=O)[C@H](Cc2c[nH]c3ccccc23)NC(=O)[C@@H]2CCCN2C(=O)[C@H]([C@@H](C)CC)NC(=O)[C@H](Cc2ccccc2)NC(=O)[C@@H](NC(C)=O)CSSC[C@@H](C(N)=O)NC(=O)[C@H](CC(C)C)NC(=O)[C@H](CC(C)C)NC(=O)CNC1=O` [Compound 31] (Ac-CFIPWNLQRIGLLC-NH2; disulfide 1-14), the IC50 in experiment [1] (TR-FRET counterscreen, Table 8D, * = some inhibition at highest concentrations, not sufficient to fit an IC50) was above 50000 nM; in experiment [3] (setting [5]), above 50000 nM; in experiment [4] (setting [5]) it was 2400 nM. The Kd in experiment [2] stood at 3010 nM.

As for Ac-ALMPWNLVRIGLLR-NH2 [Compound 45], the IC50 is above 50000 nM in experiment [1] (counterscreen, Example 7); above 50000 nM in experiment [3] (Example 7); 2020 nM in experiment [4] (Example 7). The dissociation constant (Kd) in experiment [2] was determined as 8200 nM.

On to `CC[C@H](C)[C@@H]1NC(=O)[C@H](CCCNC(=N)N)NC(=O)[C@H](CCCCN)NC(=O)[C@H](CC(C)C)NC(=O)[C@H](CC(N)=O)NC(=O)[C@H](Cc2c[nH]c3ccccc23)NC(=O)[C@@H](NC(=O)CNC(=O)[C@H](CO)NC(=O)CNC(=O)[C@@H](NC(=O)[C@H](Cc2c[nH]c3ccccc23)NC(=O)[C@H](CC(=O)O)NC(=O)[C@H](CC(C)C)NC(=O)[C@H](Cc2ccc(O)cc2)NC(=O)[C@H](CCC(=O)O)NC(=O)[C@H](CCC(=O)O)NC(=O)[C@H](Cc2c[nH]c3ccccc23)NC(=O)[C@H](CO)NC(=O)[C@@H](NC(=O)[C@H](Cc2ccccc2)NC(=O)[C@@H](NC(=O)[C@@H](NC(C)=O)[C@@H](C)O)C(C)C)[C@@H](C)O)C(C)C)CSSC[C@@H](C(N)=O)NC(=O)CNC(=O)[C@H](CCC(N)=O)NC(=O)[C@H](CO)NC(=O)CNC1=O` [Compound 2] (Ac-TVFTSWEEYLDWVGSGCWNLKRIGSQGC-NH2; disulfide 17-28), for which the IC50 in experiment [1] (counterscreen, Example 7) is above 50000 nM; in experiment [4] (Example 7), 4 nM. In addition, in experiment [2], the dissociation constant (Kd) was 1.87 nM.

On to `CC[C@H](C)[C@@H]1NC(=O)[C@H](CCCNC(=N)N)NC(=O)[C@H](CCCCN)NC(=O)[C@H](CC(C)C)NC(=O)[C@H](CC(N)=O)NC(=O)[C@H](Cc2c[nH]c3ccccc23)NC(=O)[C@@H](NC(=O)CCCCCNC(=O)[C@@H](NC(=O)[C@H](Cc2c[nH]c3ccccc23)NC(=O)[C@H](CC(=O)O)NC(=O)[C@H](CC(C)C)NC(=O)[C@H](Cc2ccc(O)cc2)NC(=O)[C@H](CCC(=O)O)NC(=O)[C@H](CCC(=O)O)NC(=O)[C@H](Cc2c[nH]c3ccccc23)NC(=O)[C@H](CO)NC(=O)[C@@H](NC(=O)[C@H](Cc2ccccc2)NC(=O)[C@@H](NC(=O)[C@@H](NC(C)=O)[C@@H](C)O)C(C)C)[C@@H](C)O)C(C)C)CSSC[C@@H](C(N)=O)NC(=O)CNC(=O)[C@H](CCC(N)=O)NC(=O)[C@H](CO)NC(=O)CNC1=O` [Compound 17], for which the IC50 in experiment [1] (counterscreen, Example 7) was above 50000 nM; in experiment [3] (Example 7) it was 9 nM; in experiment [4] (Example 7), 1 nM. The “Kd range for PCSK9Δhelix binding” value in experiment [2] is on record as “sub-nanomolar range”. In addition, in experiment [2], the Kd stood at 0.123 nM. The “inhibition in the PCSK9/EGF(A) binding assay” value in experiment [3] is on record as “maintained potency”. Moreover, the “inhibition in the PCSK9Δhelix/Ab20 binding assay” value in experiment [4] is on record as “maintained potency”.

Ac-DLMPWNLVRIGLAR-NH2 [Compound 55]: the IC50 is above 50000 nM in experiment [1] (counterscreen, Example 7); above 50000 nM in experiment [3] (Example 7); 9700 nM in experiment [4] (Example 7). Also, in experiment [2], the Kd came out at 2800 nM.
